#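 Compound exposure: 48 hours, 5 concentrations, 96-well plates. GI50: concentration for 50% inhibition of growth.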 Active and inactive are the calls of the source. Rule as the data show it: active = GI50 up to about 1.1 µM and inactive = higher. Starred links: 1 amine or outer side, 2 acyl side, 3 side chain; linkers in the order of their positions; H or OH if unused. Positions of bridges follow the written chain, without caps; N, C: chain ends. Non-standard residues stand in square brackets, D forms with d. Residues, ends and D or L forms follow the SMILES beside them. ξ: configuration not given here. X11 = CCC(C)C(N[*:1])C(O)CC(=O)O[C@H](C(=O)C(C)C(=O)[*:2])C(C)C; X10 = O=C([C@@H]1CC(O)CN1[*:1])[*:2]; NMeY = CN[C@@H](Cc1ccc(O)cc1)C(=O)O; ξNMeL = CNC(CC(C)C)C(=O)O; ξT = CC(O)C(N)C(=O)O
# How the values were obtained:
# Experiment in all cases: DTP human tumour cell line panel, 48 h
# DLD-1 = system: DLD-1
# DMS-273 = system: DMS-273
# HOP-18 = system: HOP-18
# LXFL 529 = system: LXFL 529
# XF498 = system: XF498
# NCI/ADR-RES = system: NCI/ADR-RES
# T47D = system: T47D
# DMS-114 = system: DMS-114
# RXF 631 = system: RXF 631
Compound,GI50 (LXFL 529),GI50 (NCI/ADR-RES),GI50 (T47D),further results
CCOC(=O)c1c(-c2ccccc2)c(C(OC(c2ccccc2)c2c(-c3ccccc3)c(C(=O)OCC)n3ccccc23)c2ccccc2)c2ccccn12 (stereo not given),> 100 µM (inactive),,,GI50 (DLD-1): > 100 µM (inactive); GI50 (DMS-273): > 100 µM (inactive); GI50 (HOP-18): > 100 µM (inactive); GI50 (XF498): > 100 µM (inactive)
O=C1CSC(c2ccc(Cl)cc2Cl)N1c1ccc(Oc2ccc(Cl)cc2)c(Cl)c1 (stereo not given),,21.6 µM (inactive),23.4 µM (inactive),
CNNC(=NS(=O)(=O)c1cc(C#N)c(NNC)cc1S)NNC,,> 10 µM (inactive),> 10 µM (inactive),
Cc1c2c(n(CCN(C)C)c1C)NN=C(C#N)S2(=O)=O,,> 100 µM (inactive),> 100 µM (inactive),
CCOC(=O)c1ccc(C(=O)C(C(C)=O)C(=O)OC(C)(C)C)[nH]1 (stereo not given),,> 100 µM (inactive),> 100 µM (inactive),
"O=C1/C(=C/c2ccccc2)CCC/C1=C\c1ccccc1 [2,6-DIBENZYLIDENECYCLOHEXANONE]",4.5 µM (inactive),8.77 µM (inactive),6.4 µM (inactive),GI50 (DLD-1): 3.04 µM (inactive); GI50 (DMS-114): 9.68 µM (inactive); GI50 (DMS-273): 8.04 µM (inactive); GI50 (HOP-18): 19.5 µM (inactive); GI50 (RXF 631): 17.7 µM (inactive)
CC(=O)c1nccc2c1c(C)nc1ccccc12,,> 100 µM (inactive),43.4 µM (inactive),
CC1(C)Oc2ccccc2OC1O (stereo not given),,> 100 µM (inactive),> 100 µM (inactive),
N#CCC(=O)N/N=C1\C(=O)N(c2ccc(Cl)cc2)C(=O)C(=O)C1c1nc2ccccc2o1 (stereo not given),> 100 µM (inactive),,,GI50 (DLD-1): > 100 µM (inactive); GI50 (DMS-114): > 100 µM (inactive); GI50 (DMS-273): > 100 µM (inactive); GI50 (HOP-18): > 100 µM (inactive); GI50 (RXF 631): > 100 µM (inactive)
O=C1/C(=C/c2cccs2)N=C(c2ccccc2)N1C1Nc2cc3c(cc2S1)NC(N1C(=O)/C(=C/c2cccs2)N=C1c1ccccc1)S3 (stereo not given),,13.9 µM (inactive),51.8 µM (inactive),
Cc1ccc(NC(=O)/C(=N\Nc2ccc([N+](=O)[O-])cc2[N+](=O)[O-])C2C(=O)NC(=O)NC2=O)cc1,13.3 µM (inactive),,,GI50 (DLD-1): 21.1 µM (inactive); GI50 (DMS-114): 49.2 µM (inactive); GI50 (HOP-18): > 100 µM (inactive); GI50 (RXF 631): > 100 µM (inactive)
O=c1cc(NNc2ccccc2)[nH]c(=O)[nH]1,,22.8 µM (inactive),> 10 µM (inactive),
Cc1ccc2c(O)cc(-c3ccccc3)nc2n1,,0.0367 µM (active),> 100 µM (inactive),
O=C(CC(=O)Nc1ccc(C(=O)O)cc1)Nc1ccc(C(=O)O)cc1,,> 100 µM (inactive),49.5 µM (inactive),
O=C(c1cccs1)N(C(=S)N1CCN(c2ccccc2)CC1)c1ccccc1,> 100 µM (inactive),,,GI50 (DLD-1): > 100 µM (inactive); GI50 (DMS-114): > 100 µM (inactive); GI50 (DMS-273): > 100 µM (inactive); GI50 (HOP-18): > 100 µM (inactive)
CN(COC(=O)C(C)(C)C)c1nc(N(C)COC(=O)C(C)(C)C)nc(N(C)COC(=O)C(C)(C)C)n1,,44.3 µM (inactive),56.6 µM (inactive),
COc1ccc(NC(=O)C(=O)NO)c(OC)c1,16.7 µM (inactive),,,GI50 (DLD-1): 21.5 µM (inactive); GI50 (DMS-114): 15.5 µM (inactive); GI50 (DMS-273): 16.6 µM (inactive); GI50 (HOP-18): 17.3 µM (inactive); GI50 (RXF 631): 18.6 µM (inactive)
Cc1ccc(S(=O)(=O)OC(COC(=O)c2ccccc2)C(OS(=O)(=O)c2ccc(C)cc2)C(OS(=O)(=O)c2ccc(C)cc2)C(COC(=O)c2ccccc2)OS(=O)(=O)c2ccc(C)cc2)cc1 (stereo not given),> 100 µM (inactive),,,GI50 (DMS-273): > 100 µM (inactive)
C/C=C/C(C#N)O[Si](C)(C)C (stereo not given),> 100 µM (inactive),,,GI50 (DLD-1): > 100 µM (inactive); GI50 (DMS-114): > 100 µM (inactive); GI50 (DMS-273): > 100 µM (inactive); GI50 (HOP-18): > 100 µM (inactive); GI50 (XF498): > 100 µM (inactive)
COc1cccc(-c2[nH]c3cc4c(cc3c(=O)c2C(=O)O)OCO4)c1,,17.8 µM (inactive),> 100 µM (inactive),
CCOC(=O)C1=C(c2ccccc2)N(C)c2ccccc2S1,,22.3 µM (inactive),18.1 µM (inactive),
Cc1ccc([N+](=O)[O-])cc1S(=O)(=O)Nc1ccc(C2=NN(c3ccc([N+](=O)[O-])cc3[N+](=O)[O-])C(c3ccccc3)C2)cc1 (stereo not given),,18.4 µM (inactive),12.1 µM (inactive),
COc1ccc(-c2c3c([nH]c(=S)c2C#N)CC(C)(C)CC3=O)cc1,,,59.6 µM (inactive),
Cc1cccc(C)c1NC(=O)C(=O)C1C(=O)N(c2ccccc2)N=C1N (stereo not given),> 100 µM (inactive),,,GI50 (DLD-1): > 100 µM (inactive); GI50 (DMS-114): > 100 µM (inactive); GI50 (DMS-273): > 100 µM (inactive); GI50 (HOP-18): > 100 µM (inactive)
O=C1c2ccccc2C(=O)c2cc(/N=N/c3c(O)ccc4ccccc34)ccc21,,> 100 µM (inactive),> 100 µM (inactive),
CSC1=Nc2ccccc2N(C)c2c1c(-c1ccccc1)nn2C,,21.8 µM (inactive),9.79 µM (inactive),
CC(NC(=O)c1ccc(OP(=O)(OCC2=CC(=O)c3ccccc3C2=O)N(C)CCCCCl)cc1)c1ccc(OCC2CCCCC2)c(C(N)=O)c1 (stereo not given),,14.8 µM (inactive),0.0891 µM (active),
CCC(C)C1NC(=O)C(NC(=O)C(CC(C)C)N(C)C(=O)[C@@H]2CC(O)CN2)C(C)OC(=O)[C@H](Cc2ccc(OC)cc2)N(C)C(=O)[C@@H]2CCCN2C(=O)[C@H](CC(C)C)NC(=O)C(C)C(=O)[C@H](C(C)C)OC(=O)CC1O (stereo not given in full) (H-[X10][ξNMeL][ξT][X11]LP[NMeY](Me); ester 3-C),,1.45 µM (inactive),0.0035 µM (active),
